Tests used:
[1] = test system: wild-type lysC aptamer (three-strand smFRET construct LMS/1-5V2/DNA-bi) (RNA, riboswitch, internal amino modifier (N) for Cy5 between 25 and 26 of strand 2; strand 3 is a DNA tether) GCGGUGAAGAUAGAGGUGCGAACUUCAAGAGUAUGCCUUUGGAGAAAGAUGGAUUCUGUGAAAAAGGCUGAAAGGGGAGCGUCGCCGAAGCAAAUAAAACCCCAUCGGUAUUAUUUGCUGGCCGUGCAUUGAAUAAAUGUAAGGCUGUCAAGAAGCAUCGUUCAAGCGUUUUUUAUGCUUGGAAGAUAAGAA/CCGAUGCUUCUUGGAGGGCUAUCUUCACC; assay: smFRET histograms; details: Na+ in place of K+; ligand-bound FRET state not formed efficiently
[2] = test system: L2X variant (G72C-G76C) (RNA, riboswitch, internal amino modifier (N) for Cy5 between 25 and 26 of strand 2; strand 3 is a DNA tether) GCGGUGAAGAUAGAGGUGCGAACUUCAAGAGUAUGCCUUUGGAGAAACUACCAUUCUGUGAAAAAGGCUGAAAGGGGAGCGUCGCCGAAGCAAAUAAAACCCCAUCGGUAUUAUUUGCUGGCCGUGCAUUGAAUAAAUGUAAGGCUGUCAAGAAGCAUCGUUCAAGCGUUUUUUAUGCUUGGAAGAUAAGAA/CCGAUGCUUCUUGGAGGGCUAUCUUCACC; assay: smFRET histograms; details: ligand-bound FRET state not formed even at high Mg2+ or lysine
[3] = test system: BPX variant (G39C) (RNA, riboswitch, internal amino modifier (N) for Cy5 between 25 and 26 of strand 2; strand 3 is a DNA tether) GCGGUGAAGAUAGACGUGCGAACUUCAAGAGUAUGCCUUUGGAGAAAGAUGGAUUCUGUGAAAAAGGCUGAAAGGGGAGCGUCGCCGAAGCAAAUAAAACCCCAUCGGUAUUAUUUGCUGGCCGUGCAUUGAAUAAAUGUAAGGCUGUCAAGAAGCAUCGUUCAAGCGUUUUUUAUGCUUGGAAGAUAAGAA/CCGAUGCUUCUUGGAGGGCUAUCUUCACC; assay: smFRET histograms; details: ligand-bound FRET state not formed even at high Mg2+ or lysine
[4] = test system: wild-type lysC aptamer (three-strand smFRET construct LMS/1-5V2/DNA-bi) (RNA, riboswitch, internal amino modifier (N) for Cy5 between 25 and 26 of strand 2; strand 3 is a DNA tether) GCGGUGAAGAUAGAGGUGCGAACUUCAAGAGUAUGCCUUUGGAGAAAGAUGGAUUCUGUGAAAAAGGCUGAAAGGGGAGCGUCGCCGAAGCAAAUAAAACCCCAUCGGUAUUAUUUGCUGGCCGUGCAUUGAAUAAAUGUAAGGCUGUCAAGAAGCAUCGUUCAAGCGUUUUUUAUGCUUGGAAGAUAAGAA/CCGAUGCUUCUUGGAGGGCUAUCUUCACC; assay: smFRET histograms, global Hill fit of state occupancies; details: 50 mM Tris pH 7.8
[5] = test system: L4X variant (A156/157C) (RNA, riboswitch, internal amino modifier (N) for Cy5 between 25 and 26 of strand 2; strand 3 is a DNA tether) GCGGUGAAGAUAGAGGUGCGAACUUCAAGAGUAUGCCUUUGGAGAAAGAUGGAUUCUGUGAAAAAGGCUGAAAGGGGAGCGUCGCCGAAGCAAAUAAAACCCCAUCGGUAUUAUUUGCUGGCCGUGCAUUGCCUAAAUGUAAGGCUGUCAAGAAGCAUCGUUCAAGCGUUUUUUAUGCUUGGAAGAUAAGAA/CCGAUGCUUCUUGGAGGGCUAUCUUCACC; assay: smFRET histograms; details: ligand-bound FRET state not formed even at high Mg2+ or lysine
[6] = test system: wild-type lysC aptamer (three-strand smFRET construct LMS/1-5V2/DNA-bi) (RNA, riboswitch, internal amino modifier (N) for Cy5 between 25 and 26 of strand 2; strand 3 is a DNA tether) GCGGUGAAGAUAGAGGUGCGAACUUCAAGAGUAUGCCUUUGGAGAAAGAUGGAUUCUGUGAAAAAGGCUGAAAGGGGAGCGUCGCCGAAGCAAAUAAAACCCCAUCGGUAUUAUUUGCUGGCCGUGCAUUGAAUAAAUGUAAGGCUGUCAAGAAGCAUCGUUCAAGCGUUUUUUAUGCUUGGAAGAUAAGAA/CCGAUGCUUCUUGGAGGGCUAUCUUCACC; assay: smFRET kinetics, KD,fold x KD,bind; details: 100 mM K+, 2 mM Mg2+; 50 mM Tris pH 7.8; apparent

`NCCCC[C@H](N)C(=O)O` was tested, and the binding [1] was “weak”, the binding [2] was “no” and the binding [3] was “no”. For the same compound, the KD ([4]; 100 mM K+, 2 mM Mg2+, Figure 4 legend prints 4.5 ± 1 μM) was 3 ± 1 µM, the KD ([4]; no K+, 10 mM Mg2+, Hill coefficient 1.1 ± 0.2) was 850 ± 35 µM and the binding [5] was “no”. For the same compound, the “KD, app” value [6] was 11 ± 7 µM.

— article PMC6614840 (2019)
